By Papp is commonly meant the rate of passage across a membrane or cell layer, normalised by area and donor concentration. What is called IC50 is the point on the concentration scale where inhibition reaches its midpoint. A high value points to weaker potency. The Ki is a measure of affinity in units of concentration, obtained from inhibition or displacement.

Each structure is given as a SMILES string.

A short description of series [1]: Intrinsic permeability across Caco-2 cell monolayers. The note with it: human. In general terms: Caco-2 monolayers are a common model of the intestinal barrier.
The target in series [2] is T1, Vascular endothelial growth factor receptor 1 (Homo sapiens, UniProt P17948). In words: Inhibition of VEGFR1 by HTRF assay. Background: TR-FRET usually uses a lanthanide donor and a delayed reading to cut background.
Target sequence in this assay (P17948 whole entry, looked up): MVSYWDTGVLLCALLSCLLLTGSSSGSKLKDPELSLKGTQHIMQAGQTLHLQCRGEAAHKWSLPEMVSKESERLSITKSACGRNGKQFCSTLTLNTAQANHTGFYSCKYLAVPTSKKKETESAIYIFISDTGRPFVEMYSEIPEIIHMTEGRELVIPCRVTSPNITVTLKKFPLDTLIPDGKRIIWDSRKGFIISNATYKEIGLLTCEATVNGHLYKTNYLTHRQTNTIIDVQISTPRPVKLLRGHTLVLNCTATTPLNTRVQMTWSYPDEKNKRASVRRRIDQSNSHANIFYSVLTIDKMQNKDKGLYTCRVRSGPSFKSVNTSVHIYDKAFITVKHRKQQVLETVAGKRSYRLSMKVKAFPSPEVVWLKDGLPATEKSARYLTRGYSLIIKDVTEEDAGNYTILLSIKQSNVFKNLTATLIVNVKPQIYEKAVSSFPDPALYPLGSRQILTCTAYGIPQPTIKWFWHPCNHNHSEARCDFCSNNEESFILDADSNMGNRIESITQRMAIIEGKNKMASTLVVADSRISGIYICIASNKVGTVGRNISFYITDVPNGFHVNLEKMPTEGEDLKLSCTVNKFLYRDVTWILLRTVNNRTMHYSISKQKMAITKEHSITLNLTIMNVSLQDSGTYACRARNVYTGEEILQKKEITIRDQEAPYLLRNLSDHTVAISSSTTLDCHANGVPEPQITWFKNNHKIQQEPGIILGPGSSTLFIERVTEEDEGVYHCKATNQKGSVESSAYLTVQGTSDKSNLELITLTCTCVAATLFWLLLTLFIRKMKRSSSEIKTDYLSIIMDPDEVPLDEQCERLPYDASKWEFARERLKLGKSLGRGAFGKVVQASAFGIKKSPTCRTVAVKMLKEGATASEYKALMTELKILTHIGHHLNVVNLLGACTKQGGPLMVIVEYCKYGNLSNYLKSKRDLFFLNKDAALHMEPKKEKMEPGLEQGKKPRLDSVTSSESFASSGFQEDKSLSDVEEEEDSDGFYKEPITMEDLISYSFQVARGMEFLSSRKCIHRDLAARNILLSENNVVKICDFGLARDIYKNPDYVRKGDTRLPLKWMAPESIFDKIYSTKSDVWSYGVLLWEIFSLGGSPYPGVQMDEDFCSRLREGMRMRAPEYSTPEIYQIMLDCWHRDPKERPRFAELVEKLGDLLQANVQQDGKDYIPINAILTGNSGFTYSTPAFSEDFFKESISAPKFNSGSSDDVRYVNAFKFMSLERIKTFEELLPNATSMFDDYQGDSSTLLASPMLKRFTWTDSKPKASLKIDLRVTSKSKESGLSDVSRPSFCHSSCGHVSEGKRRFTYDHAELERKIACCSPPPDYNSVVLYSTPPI
In series [3] the target is T2, Vascular endothelial growth factor receptor 2 (Homo sapiens, UniProt P35968). In words: Inhibition of VEGFR2 by cell-based assay. The format is functional.
For series [4], the target named is T2, Vascular endothelial growth factor receptor 2. In words: Inhibition of VEGFR2 by HTRF assay.
Series [5] has the same target. In words: Inhibition of VEGFR2 by [32P]ATP-competitive radioassay.
Series [6] concerns the target T1, Vascular endothelial growth factor receptor 1. The experiment in a line: Inhibition of VEGFR1 by HTRF assay.
Target sequence in this assay (P17948 whole entry): as the sequence (P17948 whole entry, looked up) above
Series [7] addresses T2, Vascular endothelial growth factor receptor 2. The experiment in a line: Inhibition of VEGFR2 by HTRF assay.

T2 sequence (P35968 whole entry): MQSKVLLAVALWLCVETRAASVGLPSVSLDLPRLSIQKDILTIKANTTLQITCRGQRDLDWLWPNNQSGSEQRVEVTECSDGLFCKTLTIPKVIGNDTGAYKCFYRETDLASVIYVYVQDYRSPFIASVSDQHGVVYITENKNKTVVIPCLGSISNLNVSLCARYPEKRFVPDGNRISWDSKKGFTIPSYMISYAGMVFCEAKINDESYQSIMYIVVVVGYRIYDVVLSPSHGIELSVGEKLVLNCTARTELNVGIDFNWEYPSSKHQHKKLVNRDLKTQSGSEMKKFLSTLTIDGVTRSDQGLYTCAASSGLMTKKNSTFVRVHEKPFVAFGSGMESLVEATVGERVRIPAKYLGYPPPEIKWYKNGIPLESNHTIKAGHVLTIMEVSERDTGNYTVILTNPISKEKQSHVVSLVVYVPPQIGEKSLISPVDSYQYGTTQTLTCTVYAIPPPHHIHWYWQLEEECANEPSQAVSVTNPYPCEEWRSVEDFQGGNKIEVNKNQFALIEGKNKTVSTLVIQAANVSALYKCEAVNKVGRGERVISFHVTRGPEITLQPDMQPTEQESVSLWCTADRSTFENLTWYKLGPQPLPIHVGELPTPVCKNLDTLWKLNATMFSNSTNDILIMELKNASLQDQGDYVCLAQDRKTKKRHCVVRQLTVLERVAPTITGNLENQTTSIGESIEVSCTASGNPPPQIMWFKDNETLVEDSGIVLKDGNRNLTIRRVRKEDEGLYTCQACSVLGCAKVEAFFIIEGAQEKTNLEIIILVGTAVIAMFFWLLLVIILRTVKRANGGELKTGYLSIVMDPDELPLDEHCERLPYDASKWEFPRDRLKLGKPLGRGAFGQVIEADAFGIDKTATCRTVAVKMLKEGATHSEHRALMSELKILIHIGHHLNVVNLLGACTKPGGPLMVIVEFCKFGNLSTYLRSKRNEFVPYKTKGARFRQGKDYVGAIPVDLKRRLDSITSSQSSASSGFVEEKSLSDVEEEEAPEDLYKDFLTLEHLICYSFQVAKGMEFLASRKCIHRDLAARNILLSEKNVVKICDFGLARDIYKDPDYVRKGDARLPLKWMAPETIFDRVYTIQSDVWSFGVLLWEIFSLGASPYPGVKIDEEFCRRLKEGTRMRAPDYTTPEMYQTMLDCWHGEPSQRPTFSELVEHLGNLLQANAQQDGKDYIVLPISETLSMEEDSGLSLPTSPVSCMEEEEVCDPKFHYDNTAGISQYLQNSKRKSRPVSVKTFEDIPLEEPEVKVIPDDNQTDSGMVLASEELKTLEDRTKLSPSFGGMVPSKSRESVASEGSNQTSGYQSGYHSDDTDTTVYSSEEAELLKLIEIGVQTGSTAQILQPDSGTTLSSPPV

Turning to `Cn1cnc(NCc2ccncc2)c1C(=O)Nc1ccc(Cl)cc1`, the Papp in series [1] was 0.95 ×10⁻⁶ cm/s. In addition, the IC50 was > 10000 nM in series [2], 1650 nM in series [3] and 250 nM in series [4].

For the compound `CC(C)c1ccc(NC(=O)c2c(NCc3ccncc3)ncn2C)cc1`, the Papp in series [1] was 6.2 ×10⁻⁶ cm/s. The half-inhibitory concentration (IC50) in series [2] turned out to be 270 nM; in series [3], 75 nM; in series [4] it was 180 nM.

Turning to `Cn1cnc(NCc2ccncc2)c1C(=O)Nc1ccc(Cl)c(Cl)c1`, the Papp in series [1] is 7.03 ×10⁻⁶ cm/s. Moreover, the IC50 in series [2] was found to be 550 nM; in series [3], 96 nM; in series [4] it was 370 nM.

Turning to `COc1ccc(NC(=O)c2c(NCc3ccncc3)ncn2C)cc1OC`, the apparent permeability (Papp) in series [1] is 8.22 ×10⁻⁶ cm/s. For the same compound, the IC50 in series [2] is 350 nM; in series [3], 57 nM; in series [4] it was 210 nM.

For the compound `Cn1cnc(NCc2ccncc2)c1C(=O)Nc1ccc(Cl)c(C(F)(F)F)c1`, in series [1], the Papp was 6.15 ×10⁻⁶ cm/s. For the same compound, the half-maximal inhibitory concentration (IC50) was found to be 1260 nM in series [2], 170 nM in series [3] and 950 nM in series [4].

In turn, `Cc1cc(NC(=O)c2c(NCc3ccncc3)ncn2C)ccc1C(F)(F)F` registered an inhibitory constant (Ki) in series [5] of 160 nM. This compound showed a Papp in series [1] of 7.1 ×10⁻⁶ cm/s. The figures for the half-maximal inhibitory concentration (IC50) in series [2], in series [3] and in series [4] were 510 nM, 64 nM and 210 nM, respectively.

As for `Cn1ncc(NCc2ccc3c(c2)OCO3)c1C(=O)Nc1cccc(C(F)(F)F)c1`, the values for the IC50 in series [6], in series [7] and in series [3] were 5290 nM, > 10000 nM and > 10000 nM, respectively.

As for `Cn1cnc(NCc2ccc3c(c2)OCO3)c1C(=O)Nc1cccc(C(F)(F)F)c1`, the IC50 in series [6] is 2270 nM; in series [7], 3120 nM; in series [3], > 10000 nM.

As for `Cn1cnc(NCc2ccc3c(c2)OCO3)c1C(=O)Nc1ccc(C(F)(F)F)cc1`, the concentration for half-maximal inhibition (IC50) is 1680 nM in series [6], 2550 nM in series [7] and > 10000 nM in series [3].

In series [5], `Cn1cnc(NCc2ccncc2)c1C(=O)Nc1ccc(C(C)(C)C)cc1` displayed a Ki of 200 nM. Moreover, the apparent permeability coefficient (Papp) in series [1] was 7.55 ×10⁻⁶ cm/s. Also, the half-maximal inhibitory concentration (IC50) in series [2] stood at 110 nM; in series [3], 64 nM; in series [4] it was 87 nM.

`Cn1cnc(NCc2ccncc2)c1C(=O)Nc1ccc(C(F)(F)F)c(Cl)c1`: in series [1], the apparent permeability coefficient (Papp) is 3.6 ×10⁻⁶ cm/s. Also, the half-maximal inhibitory concentration (IC50) is 350 nM in series [2], 88 nM in series [3] and 290 nM in series [4].

In series [5], `Cn1ncc(NCc2ccncc2)c1C(=O)Nc1ccc(OC(F)(F)F)cc1` yielded a Ki of 170 nM. In series [1], the apparent permeability (Papp) is 5.42 ×10⁻⁶ cm/s. Besides, the concentration for half-maximal inhibition (IC50) stood at 1870 nM in series [2], 64 nM in series [3] and 730 nM in series [4].

In series [1], `Cn1ncc(NCc2ccncc2)c1C(=O)Nc1ccc(C(C)(C)C)cc1` showed an apparent permeability (Papp) of 6.25 ×10⁻⁶ cm/s. The half-maximal inhibitory concentration (IC50) turned out to be 180 nM in series [2], 45 nM in series [3] and 130 nM in series [4].

(Values after ChEMBL document CHEMBL1139078, “ortho-Substituted azoles as selective and dual inhibitors of VEGF receptors 1 and 2” (Bioorg Med Chem Lett, 2007).)
